Read-outs that look alike come from different tables or passages of the source.
Legend:
gram-negative bacteria = test: Rapid bactericidal effect of perfume ingredients (example 1, Mueller-Hinton broth, most probable number method); assay type: cell-based; conditions: for rapid (30 s) bactericidal activity on gram-negative bacteria (class): 30 s contact time, 0.1% or 0.2% (w/v) in Mueller-Hinton broth
Procedure: A sufficiently rapid bactericidal activity of a perfume ingredient against gram-negative bacteria according to the invention is determined as follows. The perfume ingredient must have a reduction factor of bacterial viability of at least 20-fold when it is tested in a concentration of 0.2% in Mueller Hinton Broth with a contact time of 30 seconds as described below. The perfume ingredient is dissolved in dimethylsulfoxide (DMSO) in a concentration of 4% (w/v). An aliquot (10 μl) of the solution is added to individual wells of microtiter plates.
200 μl of Mueller-Hinton broth containing a bacterial inoculum of 2.5×10^6 cfu (colony forming units) is added. After 30 s contact time, 20 μl of the test solution is removed and added to 180 μl of a neutralising solution (containing 3 g lecithin, 30 g Tween® 80, 5 g sodium thiosulfate, 1 g histidine, 30 g saponin, 8.5 g sodium chloride, 1 g tryptone and 1000 ml water). After 1 min incubation, the sample is serially diluted 1:1 in Micotiter-plates containing 100 μl Mueller-Hinton Broth per well, and then incubated for 24 h at 37° C. The maximal dilution showing bacterial growth is recorded to determine the number of surviving bacteria (so-called most probable number method, which is a well-known microbiological method), and results are compared to control samples without added perfumery chemicals. Reduction in bacterial viability is thus calculated by dividing numbers of bacteria in control samples by the number surviving in the treated samples. […].
Test organisms Escherichia coli (ATCC 10536), Salmonella typhimurium (ATCC 13311) and Pseudomonas aeruginosa (ATCC 15442) are used. For Pseudomonas aeruginosa the test solution contains additionally 0.1% EDTA.
A large number of commercially-available materials including a collection of 900 perfumery chemicals is tested. The materials are dissolved in dimethylsulfoxide (DMSO) in a concentration of 4% (w/v). An aliquot (5 μl or 10 μl) of each solution is added to individual wells of microtiter plates. 200 μl of Mueller-Hinton broth containing a bacterial inoculum of 2.5×10^6 cfu (colony forming units) is added. After 30 s and 60 s contact time, 20 μl of the test solution is removed and added to 180 μl of a neutralising solution (containing 3 g lecithin, 30 g Tween® 80, 5 g sodium thiosulfate, 1 g histidine, 30 g saponin, 8.5 g sodium chloride, 1 g tryptone and 1000 ml water). After 1 min incubation, the samples are serially diluted 1:1 in Micotiter-plates containing 100 μl Mueller-Hinton Broth per well, and then incubated for 24 h at 37° C. The maximal dilution showing bacterial growth is recorded to determine the number of surviving bacteria (so-called most probable number method, which is a well-known microbiological method), and results are compared to control samples without added perfumery chemicals. Reduction in bacterial viability is thus calculated by dividing numbers of bacteria in control samples by the number surviving in the treated samples.

Pseudomonas aeruginosa = test: Rapid bactericidal activity of liquid wash formulations; assay type: cell-based
Procedure: The above formulations are supplemented with 0.9% (w/v) of the perfume composition A of example 2. A control of each formulation is left un-perfumed. The rapid bactericidal activity of these formulations is then tested as follows: • The products are diluted 1:1 in hard water as defined in the European standard EN 1276. This mimics conditions of use on wet hands or wet surfaces in commonly used water. • 500 μl of the product is mixed with 25 μl of a bacterial inoculum containing 2×10^8 cfu/ml (colony forming units). • The mixture is incubated for 30 seconds at 37° C. • 20 μl of the mixture is removed and added to 180 μl neutralising solution (containing 3 g lecithin, 30 g Tween® 80, 5 g sodium thiosulfate, 1 g histidine, 30 g saponin, 8.5 g sodium chloride, 1 g tryptone and 1000 ml water). • The mixture with neutraliser is incubated for 1 min • Serial dilutions of the mixture with neutralising solution are made, and aliquots of these are added to Petri-dishes and embedded in tryptic soy agar containing 0.5% Tween® 80 to inactivate any residual antibacterial compounds. • Bacterial numbers are counted after 24 h incubation at 37° C. and compared to control samples. • Reduction in bacterial viability is determined as described in example 1
The resulting formulations are tested in a 1:1 dilution for their rapid bactericidal effects after 30 seconds for Pseudomonas aeruginosa.
Formulation IVg is supplemented as indicated in the table below with various different chelating agents instead of EDTA and is tested as described in example 5a. The resulting products are tested with 30 s contact time at a 1:1 dilution for bactericidal effects on P. aeruginosa.

[1] = Pyrene 1:3 ratio (I373/I384) for micelle formation; assay type: physicochemical
Procedure: To 100 μl of each dilution, 5 μl of a pyrene solution (0.4 mM in ethanol) is added. After equilibration, the fluorescence of the solution with an excitation at 335 nm is determined.
To 100 μl of each dilution, 5 μl of a pyrene solution (0.4 mM in ethanol) is added. After equilibration, the fluorescence of the solution with an excitation at 335 nm is determined on an LS-50 Perkin Elmer fluorescence spectrometer.

[2] = chelating agent added to formulation instead of EDTA, 1:1, 30 s

CCC(=O)OCCC(C)CCC=C(C)C (stereo not drawn) [citronellyl-propionate]
antibacterial effect in formulations according to the present invention (in words) (gram-negative bacteria): do not provide a sufficient antibacterial effect
rapid (30 s) bactericidal activity on gram-negative bacteria (class) (gram-negative bacteria): without activity

CC(O)(P(=O)(O)O)P(=O)(O)O [1-hydroxyethylidene-1,1-phosphonic acid]
effect of the chelating agent on rapid activity of the formulation against Pseudomonas aeruginosa (in words) (Pseudomonas aeruginosa): not able to provide this improved activity

C=CC(C)(CCC=C(C)C)OC=O (stereo not drawn) [linalyl-formiate]
antibacterial effect in formulations according to the present invention (in words) (gram-negative bacteria): do not provide a sufficient antibacterial effect
rapid (30 s) bactericidal activity on gram-negative bacteria (class) (gram-negative bacteria): without activity

CCCCCCCCCCCCOS(=O)(=O)[O-].[Na+] [Sodium dodecylsulfate]
ratio (I373)/(I384) (pyrene 1:3 ratio) ([1]; CONC 0.01% in water): 1.11
ratio (I373)/(I384) (pyrene 1:3 ratio) ([1]; CONC 0.02% in water): 1.12
ratio (I373)/(I384) (pyrene 1:3 ratio) ([1]; CONC 0.04% in water): 1.08
ratio (I373)/(I384) (pyrene 1:3 ratio) ([1]; CONC 0.08% in water): 0.92
ratio (I373)/(I384) (pyrene 1:3 ratio) ([1]; CONC 0.16% in water): 0.78
ratio (I373)/(I384) (pyrene 1:3 ratio) ([1]; CONC 0.31% in water): 0.79
ratio (I373)/(I384) (pyrene 1:3 ratio) ([1]; CONC 0.63% in water): 0.75
ratio (I373)/(I384) (pyrene 1:3 ratio) ([1]; CONC 1.25% in water): 0.74

CCC(=O)OC/C=C(\C)CCC=C(C)C [Geranyl-propionate]
antibacterial effect in formulations according to the present invention (in words) (gram-negative bacteria): do not provide a sufficient antibacterial effect
rapid (30 s) bactericidal activity on gram-negative bacteria (class) (gram-negative bacteria): without activity

C=CC(C)(CCC=C(C)C)OC(=O)CC (stereo not drawn) [linalyl-propionate]
antibacterial effect in formulations according to the present invention (in words) (gram-negative bacteria): do not provide a sufficient antibacterial effect
rapid (30 s) bactericidal activity on gram-negative bacteria (class) (gram-negative bacteria): without activity

CC(C)=CCCC(C)CCOC=O (stereo not drawn) [citronellyl-formiate]
antibacterial effect in formulations according to the present invention (in words) (gram-negative bacteria): do not provide a sufficient antibacterial effect
rapid (30 s) bactericidal activity on gram-negative bacteria (class) (gram-negative bacteria): without activity

O=P(O)(O)CN(CP(=O)(O)O)CP(=O)(O)O [Aminotri (methylene-phosponic acid)]
effect of the chelating agent on rapid activity of the formulation against Pseudomonas aeruginosa (in words) (Pseudomonas aeruginosa; [2]): not able to provide this improved activity

Diisopropyl-sulfosuccinate
ratio (I373)/(I384) (pyrene 1:3 ratio) ([1]; CONC 0.01% in water): 1.21
ratio (I373)/(I384) (pyrene 1:3 ratio) ([1]; CONC 0.02% in water): 1.21
ratio (I373)/(I384) (pyrene 1:3 ratio) ([1]; CONC 0.04% in water): 1.20
ratio (I373)/(I384) (pyrene 1:3 ratio) ([1]; CONC 0.08% in water): 1.36
ratio (I373)/(I384) (pyrene 1:3 ratio) ([1]; CONC 0.16% in water): 1.99
ratio (I373)/(I384) (pyrene 1:3 ratio) ([1]; CONC 0.31% in water): 1.65
ratio (I373)/(I384) (pyrene 1:3 ratio) ([1]; CONC 0.63% in water): 1.48
ratio (I373)/(I384) (pyrene 1:3 ratio) ([1]; CONC 1.25% in water): 1.39

CC(C)=CCC/C(C)=C\COC=O [neryl-formiate]
antibacterial effect in formulations according to the present invention (in words) (gram-negative bacteria): do not provide a sufficient antibacterial effect
rapid (30 s) bactericidal activity on gram-negative bacteria (class) (gram-negative bacteria): without activity

Sodium xylene sulfonate
ratio (I373)/(I384) (pyrene 1:3 ratio) ([1]; CONC 0.01% in water): 1.37
ratio (I373)/(I384) (pyrene 1:3 ratio) ([1]; CONC 0.02% in water): 1.46
ratio (I373)/(I384) (pyrene 1:3 ratio) ([1]; CONC 0.04% in water): 2.84
ratio (I373)/(I384) (pyrene 1:3 ratio) ([1]; CONC 0.08% in water): 1.62
ratio (I373)/(I384) (pyrene 1:3 ratio) ([1]; CONC 0.16% in water): 1.49
ratio (I373)/(I384) (pyrene 1:3 ratio) ([1]; CONC 0.31% in water): 1.43
ratio (I373)/(I384) (pyrene 1:3 ratio) ([1]; CONC 0.63% in water): 1.41
ratio (I373)/(I384) (pyrene 1:3 ratio) ([1]; CONC 1.25% in water): 1.04

O=C(O)CN(CC(=O)O)[C@@H]1CCCC[C@H]1N(CC(=O)O)CC(=O)O (relative stereo) [CDTA, trans 1,2-diaminocyclohexane-N,N,N′N′-tetraacetic acid]
effect of the chelating agent on rapid activity of the formulation against Pseudomonas aeruginosa (in words) (Pseudomonas aeruginosa): further improves the effectiveness

CC(=O)OCCC(C)CCC=C(C)C (stereo not drawn) [citronellyl-actetate]
antibacterial effect in formulations according to the present invention (in words) (gram-negative bacteria): do not provide a sufficient antibacterial effect
rapid (30 s) bactericidal activity on gram-negative bacteria (class) (gram-negative bacteria): without activity

Cocoamidopropylbetaine
ratio (I373)/(I384) (pyrene 1:3 ratio) ([1]; CONC 0.01% in water): 1.19
ratio (I373)/(I384) (pyrene 1:3 ratio) ([1]; CONC 0.02% in water): 1.02
ratio (I373)/(I384) (pyrene 1:3 ratio) ([1]; CONC 0.04% in water): 0.87
ratio (I373)/(I384) (pyrene 1:3 ratio) ([1]; CONC 0.08% in water): 0.80
ratio (I373)/(I384) (pyrene 1:3 ratio) ([1]; CONC 0.16% in water): 0.80
ratio (I373)/(I384) (pyrene 1:3 ratio) ([1]; CONC 0.31% in water): 0.78
ratio (I373)/(I384) (pyrene 1:3 ratio) ([1]; CONC 0.63% in water): 0.79
ratio (I373)/(I384) (pyrene 1:3 ratio) ([1]; CONC 1.25% in water): 0.78

O=C(O)CN(CCN(CC(=O)O)CC(=O)O)CCN(CC(=O)O)CC(=O)O [DTPA, di-ethylen-triamine-penta-acetate]
effect of the chelating agent on rapid activity of the formulation against Pseudomonas aeruginosa (in words) (Pseudomonas aeruginosa; [2]): not able to provide this improved activity

CC(C)=CCC/C(C)=C/COC=O [Geranyl-formiate]
antibacterial effect in formulations according to the present invention (in words) (gram-negative bacteria): do not provide a sufficient antibacterial effect
rapid (30 s) bactericidal activity on gram-negative bacteria (class) (gram-negative bacteria): without activity

CCC(=O)OC/C=C(/C)CCC=C(C)C [neryl-propionate]
antibacterial effect in formulations according to the present invention (in words) (gram-negative bacteria): do not provide a sufficient antibacterial effect
rapid (30 s) bactericidal activity on gram-negative bacteria (class) (gram-negative bacteria): without activity

O=C(O)CN(CC(=O)O)CC(=O)O [NTA, nitrilotriacetic acid]
effect of the chelating agent on rapid activity of the formulation against Pseudomonas aeruginosa (in words) (Pseudomonas aeruginosa; [2]): not able to provide this improved activity

O=C(O)C[C@H](NCCN[C@@H](CC(=O)O)C(=O)O)C(=O)O [EDDS, ethylendiaminedisuccinic acid]
effect of the chelating agent on rapid activity of the formulation against Pseudomonas aeruginosa (in words) (Pseudomonas aeruginosa; [2]): not able to provide this improved activity

O=C(O)CC(NC(CC(=O)O)C(=O)O)C(=O)O (stereo not drawn) [IDS, iminodisuccinic acid]
effect of the chelating agent on rapid activity of the formulation against Pseudomonas aeruginosa (in words) (Pseudomonas aeruginosa; [2]): not able to provide this improved activity

Reference: patent US20080118591A1, “Bactericidal Formulations” (priority 2004, published 2008)
